Reference: patent US20240197891A1, “PHARMACEUTICAL COMPOSITIONS COMPRISING POH DERIVATIVES” (UNIVERSITY OF SOUTHERN CALIFORNIA, priority 2021, published 2024)
“Also recorded” adds a separate entry of the source. One block for each compound: values may come before it.

What was measured:
U87 human glioma cells = experiment: MTT cytotoxicity assay, U87 cells; format: cell-based; settings: U-87 cells, 48 hours
From the text: (§1) In vitro efficacy of the present composition can be determined using methods well known in the art. For example, the cytotoxicity of the present monoterpene (or sesquiterpene) and/or the therapeutic agents may be studied by MTT [3-(4,5-dimethylthiazol-2-yl)-2,5-diphenyl tetrazolium bromide] cytotoxicity assay. MTT assay is based on the principle of uptake of MTT, a tetrazolium salt, by metabolically active cells where it is metabolized into a blue colored formazan product, which can be read spectrometrically. J. of Immunological Methods 65: 55 63, 1983. The cytotoxicity of the present monoterpene (or sesquiterpene) derivative and/or the therapeutic agents may be studied by colony formation assay. Functional assays for inhibition of VEGF secretion and IL-8 secretion may be performed via ELISA. Cell cycle block by the present monoterpene (or sesquiterpene) derivative and/or the therapeutic agents may be studied by standard propidium iodide (PI) staining and flow cytometry. Invasion inhibition may be studied by Boyden chambers. In this assay a layer of reconstituted basement membrane, Matrigel, is coated onto chemotaxis filters and acts as a barrier to the migration of cells in the Boyden chambers. Only cells with invasive capacity can cross the Matrigel barrier. Other assays include, but are not limited to cell viability assays, apoptosis assays, and morphological assays. […]

U251 human glioma cells = experiment: MTT cytotoxicity assay, U251 cells
From the text: (§2) In vitro efficacy of the present composition can be determined using methods well known in the art. For example, the cytotoxicity of the present monoterpene (or sesquiterpene) and/or the therapeutic agents may be studied by MTT [3-(4,5-dimethylthiazol-2-yl)-2,5-diphenyl tetrazolium bromide] cytotoxicity assay. MTT assay is based on the principle of uptake of MTT, a tetrazolium salt, by metabolically active cells where it is metabolized into a blue colored formazan product, which can be read spectrometrically. J. of Immunological Methods 65: 55 63, 1983. The cytotoxicity of the present monoterpene (or sesquiterpene) derivative and/or the therapeutic agents may be studied by colony formation assay. Functional assays for inhibition of VEGF secretion and IL-8 secretion may be performed via ELISA. Cell cycle block by the present monoterpene (or sesquiterpene) derivative and/or the therapeutic agents may be studied by standard propidium iodide (PI) staining and flow cytometry. Invasion inhibition may be studied by Boyden chambers. In this assay a layer of reconstituted basement membrane, Matrigel, is coated onto chemotaxis filters and acts as a barrier to the migration of cells in the Boyden chambers. Only cells with invasive capacity can cross the Matrigel barrier. Other assays include, but are not limited to cell viability assays, apoptosis assays, and morphological assays.
(§3) To compare the cytotoxicity of Rolipram POH Carbamate (POH-Rolipram) (e.g., synthesized by the method in Example 5) with rolipram, […] inducing differentiation and apoptosis in glioma cells, A172, U87, U251 and LN229 human glioma cells were treated with either POH-Rolipram or rolipram for 48 hours.
(§4) MTT cytotoxicity assays were carried out after cells were treated with the TMZ-POH conjugate. The MTT cytotoxicity assays were carried out as described in Chen T C, et al. Green tea epigallocatechin gallate enhances therapeutic efficacy of temozolomide in orthotopic mouse glioblastoma models. Cancer Lett. 2011 Mar. 28; 302(2):100-8.

LN229 human glioma cells = experiment: cells
From the text: as §2, §3

[1] = tested on: A172, U87, U251 and LN229 human glioma cells; experiment: MTT assay, POH-Rolipram versus rolipram across glioma cell types (stated jointly); format: cell-based; settings: each of A172, U87, U251, LN229; 48 hours
From the text: as §1

A172 human glioma cells = experiment: MTT cytotoxicity assay, A172 cells; format: cell-based; settings: A-172 cells, 48 hours
From the text: as §1

[2] = tested on: subcutaneous U-87 gliomas; experiment: Nude mouse subcutaneous glioma model; format: in vivo; settings: local application via Q-tip, 1 cc/application/day, 8 weeks; 60 days
Protocol: Inhibition of tumor growth by butyryl-POH was studied in a nude mouse subcutaneous glioma model. Mice were injected with U-87 glioma cells (500,000 cells/injection) and allowed to form a palpable nodule over two weeks. Once palpable nodule was formed, the mice were treated with local application of various compounds as indicated in FIGS. 9A and 9B via a Q-tip (1 cc/application/day) over a period of 8 weeks.

[3] = tested on: tumor brain endothelial cells (TuBEC); experiment: MTT cytotoxicity assay, tumor brain endothelial cells; format: cell-based
From the text: (§5) Cancer Lett. 2011 Mar. 28; 302(2):100-8.

[4] = tested on: ER stress (CHOP) in TMZ sensitive and resistant U251 glioma cells; experiment: Western blot of ER stress in U251 glioma cells; format: cell-based, human; settings: 18 hr
Protocol: Western blots were performed after TMZ sensitive and resistant glioma cells were treated with the TMZ-POH conjugate for 18 hr. […] Activation of the proapoptotic protein CHOP was shown at concentrations as low as 60 uM of TMZ-POH.

[5] = tested on: brain endothelial cells (BEC); experiment: MTT cytotoxicity assay, brain endothelial cells; format: cell-based
From the text: as §5

[6] = tested on: TMZ sensitive (U251) cells; experiment: Colony forming assay, TMZ sensitive U251 cells; format: cell-based, human
Protocol: (§6) Colony forming assays were carried out after cells were treated with TMZ alone, POH alone, and the TMZ-POH conjugate. […] Cancer Lett. 2011 Mar. 28; 302(2):100-8.

normal astrocytes = experiment: MTT cytotoxicity assay, normal astrocytes; settings: listed as TMZ-POH
Protocol: as §4

[7] = tested on: human malignant glioma cells U87, A172 and U251; experiment: MTT cytotoxicity assays on U87, A172 and U251 cells (stated jointly); format: cell-based
Protocol: J. of Immunological Methods 65: 55 63, 1983. […] Invasion inhibition may be studied by Boyden chambers.
Then U87, A172 and U251 cells were treated with dimethyl celecoxib bisPOH carbamate (POH-DMC) (e.g., synthesized by the method in Example 1), and the MTT cytotoxicity assays performed (FIG. 2).
Then TMZ-resistant glioma cell lines U87, A172 and U251 cells were treated with temozolomide POH carbamate (POH-TMZ) (e.g., synthesized by the method in Example 3).

[8] = tested on: USC-04 glioma cancer stem cells; experiment: MTT cytotoxicity assay, USC-04 glioma cancer stem cells; format: cell-based; settings: USC-04, MTT
From the text: as §5

[9] = tested on: USC-02 glioma cancer stem cells; experiment: MTT cytotoxicity assay, USC-02 glioma cancer stem cells; format: cell-based; settings: USC-02, MTT
From the text: as §5

[10] = tested on: TMZ resistant (U251TR) U251 cells; experiment: Colony forming assay, TMZ resistant U251TR cells; format: cell-based, human
Protocol: as §6

[11] = tested on: TMZ resistant cells (U251TR); experiment: MTT cytotoxicity assay, U251TR cells
Protocol: as §4

- IC50 (LN229 human glioma cells; LN229 cells, MTT, 48 hours): 100 µM
SMILES: C=C(C)C1CC=C(COC(=O)N2CC(c3ccc(OC)c(OC4CCCC4)c3)CC2=O)CC1 (stereo not shown) [POH-rolipram, 4-(3-cyclopentyloxy-4-methoxyphenyl)-2-oxo-pyrrolidine-1-carboxylic acid 4-isopropenyl cyclohex-1-enylmethyl ester]
- IC50 (U87 human glioma cells): 180 µM
- cytotoxicity at 100 uM (U251 human glioma cells): ~100%
- IC50 (U251 human glioma cells; U251 cells, MTT, 48 hours): 50 µM
- cytotoxicity at 10 uM (LN229 human glioma cells): ~100%
- kill rates (MTT) [1]: substantially higher kill rates compared to rolipram alone
- IC50 (A172 human glioma cells): 50 µM

SMILES: C=C(C)C1CC=C(COC(=O)CCC)CC1 (stereo not shown) [Butyryl-POH]
- inhibition of tumor growth [2]: greatest inhibition of tumor growth

SMILES: C=C(C)C1CC=C(COC(=O)NC(=O)c2ncn3c(=O)n(C)nnc23)CC1 (stereo not shown) [POH-TMZ]
- cytotoxicity (MTT) [3]: did not induce significant cytotoxicity
- ER stress (ERS) induction ([4]; TMZ sensitive and resistant U251 cells): induces ER stress
- lowest concentration showing activation of the proapoptotic protein CHOP ([4]; western blot): 60 µM
- cytotoxicity (MTT) ([5]; confluent BEC): did not induce significant cytotoxicity
- cytotoxicity (MTT) ([5]; subconfluent BEC, high concentrations): Mild to moderate cytotoxicity
- cytotoxicity (colony forming assay) ([6]; TMZ sensitive U251 cells): demonstrated cytotoxicity
- potency in the colony forming assays compared to POH alone ([6]; U251 and U251TR cells): substantially greater potency compared to POH alone
- cytotoxicity (MTT) (U251 human glioma cells; TMZ sensitive U251 cells, Example 9): demonstrated cytotoxicity
- cytotoxicity (MTT) (normal astrocytes): not towards normal astrocytes; also recorded: did not induce significant cytotoxicity
- cytotoxicity / kill rates (MTT) [7]: substantially higher kill rates
- IC50 [8]: 150 µM
- IC50 [9]: 60 µM
- cytotoxicity (colony forming assay) [10]: demonstrated cytotoxicity
- cytotoxicity (MTT) [11]: demonstrated cytotoxicity
